This passage reports IC50 results from patent US12139499B2, “Heteroaryl compounds for treating Huntington's disease” (PTC THERAPEUTICS, INC., priority 2018, dated 2024).

In this assay the test system is Endogenous Huntingtin Protein. Put plainly: Endogenous Huntingtin Protein Assay (ELISA-based MSD electrochemiluminescence). Format: cell-based. The following applies: Table 1. The procedure, abridged: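 Sandwich MSD electrochemiluminescence immunoassay. Capture used MW1 (expanded polyglutamine) or MAB2166 antibody coated at 1 μg/mL overnight at 4 °C. Samples were bound overnight at 4 °C, then a rabbit monoclonal detection antibody and SULFO-TAG anti-rabbit, each at 0.25 μg/mL, were applied for 1 h at room temperature.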

Regarding `Cc1cc(-c2ncc3nc(N(C)C4CC(C)(C)NC(C)(C)C4)sc3n2)cc2cn(C)nc12` [Compound 122, 5-(2,7-dimethyl-2H-indazol-5-yl)-N-methyl-N-(2,2,6,6-tetramethylpiperidin-4-yl)[1,3]thiazolo[5,4-d]pyrimidin-2-amine], the 50% inhibitory concentration (IC50) – broadly, the concentration that inhibits the measured activity by half – was in the range of 100 to 500 nM.

In the case of `CN(c1nc2cnc(-c3cc(C#N)c4nn(C)cc4c3)nc2s1)C1CC(C)(C)NC(C)(C)C1` [Compound 123, 2-methyl-5-{2-[methyl(2,2,6,6-tetramethylpiperidin-4-yl)amino][1,3]thiazolo[5,4-d]pyrimidin-5-yl}-2H-indazole-7-carbonitrile], the IC50 is not above 100 nM. For `CN(c1nc2cnc(-c3cc(F)c4nn(C)cc4c3)nc2s1)C1CC(C)(C)NC(C)(C)C1` [Compound 124, 5-(7-fluoro-2-methyl-2H-indazol-5-yl)-N-methyl-N-(2,2,6,6-tetramethylpiperidin-4-yl)[1,3]thiazolo[5,4-d]pyrimidin-2-amine] the value was not above 100 nM; for `Cc1cn2nc(-c3cc(F)c4nc(N5CCNC6(CC6)C5)sc4c3)cc(C)c2n1` [Compound 125, 6-[2-(4,7-diazaspiro[2.5]oct-7-yl)-4-fluoro-1,3-benzothiazol-6-yl]-2,8-dimethylimidazo[1,2-b]pyridazine], 100 to 500 nM; for `Cn1cc2cc(-c3cc(F)c4nc(C5CCNCC5)sc4c3)cc(F)c2n1` [Compound 126, 4-fluoro-6-(7-fluoro-2-methyl-2H-indazol-5-yl)-2-(piperidin-4-yl)-1,3-benzothiazole], not above 100 nM.

In turn, `Cc1cn2nc(-c3cc(F)c4nc(N(C)C5CC(C)(C)NC(C)(C)C5)sc4c3)cc(C)c2n1` [Compound 127, 6-(2,8-dimethylimidazo[1,2-b]pyridazin-6-yl)-4-fluoro-N-methyl-N-(2,2,6,6-tetramethylpiperidin-4-yl)-1,3-benzothiazol-2-amine] returned an IC50 not above 100 nM.

On to `CN(c1nc2ccc(-c3cc(F)c4nn(C)cc4c3)nc2s1)C1CC(C)(C)NC(C)(C)C1` [Compound 128, 5-(7-fluoro-2-methyl-2H-indazol-5-yl)-N-methyl-N-(2,2,6,6-tetramethylpiperidin-4-yl)[1,3]thiazolo[5,4-b]pyridin-2-amine], for which the IC50 was 100 to 500 nM. Compound `Cc1cn2cc(-c3ccc4nc(N(C)C5CC(C)(C)NC(C)(C)C5)sc4n3)ccc2n1` [Compound 129, N-methyl-5-(2-methylimidazo[1,2-a]pyridin-6-yl)-N-(2,2,6,6-tetramethylpiperidin-4-yl)[1,3]thiazolo[5,4-b]pyridin-2-amine] showed an IC50 of 500 to 1000 nM.

On to `CN(c1nc2ncc(-c3ccc(-c4cn[nH]c4)cc3O)nc2s1)C1CC(C)(C)NC(C)(C)C1` [Compound 130, 2-{2-[methyl(2,2,6,6-tetramethylpiperidin-4-yl)amino][1,3]thiazolo[4,5-b]pyrazin-6-yl}-5-(1H-pyrazol-4-yl)phenol], for which the IC50 was not above 100 nM. As for `Cc1cc(-c2cnc3nc(N(C)C4CC(C)(C)NC(C)(C)C4)sc3n2)cc2cn(C)nc12` [Compound 131, 6-(2,7-dimethyl-2H-indazol-5-yl)-N-methyl-N-(2,2,6,6-tetramethylpiperidin-4-yl)[1,3]thiazolo[4,5-b]pyrazin-2-amine], the figure is not above 100 nM; as for `Cc1cn2nc(-c3cc(F)c4nc(N5CC(C)NC(C)C5)sc4c3)cc(C)c2n1` (centres unmarked) [Compound 132, 6-[2-(3,5-dimethylpiperazin-1-yl)-4-fluoro-1,3-benzothiazol-6-yl]-2,8-dimethylimidazo[1,2-b]pyridazine], not above 100 nM. As for `Cc1cn2nc(-c3cc(F)c4nc(OC5CC(C)(C)NC(C)(C)C5)sc4c3)cc(C)c2n1` [Compound 133, 6-{4-fluoro-2-[(2,2,6,6-tetramethylpiperidin-4-yl)oxy]-1,3-benzothiazol-6-yl}-2,8-dimethylimidazo[1,2-b]pyridazine], the figure is not above 100 nM; as for `Cc1cc(-c2cc(O)c3nc(C4CCNCC4)sc3c2)cc2cn(C)nc12` [Compound 134, 6-(2,7-dimethyl-2H-indazol-5-yl)-2-(piperidin-4-yl)-1,3-benzothiazol-4-ol], 100 to 500 nM.

For `Cc1cn2nc(-c3cc(F)c4nc(OC5CC(C)NC(C)C5)sc4c3)cc(C)c2n1` (centres unmarked) [Compound 135, 6-{2-[(2,6-dimethylpiperidin-4-yl)oxy]-4-fluoro-1,3-benzothiazol-6-yl}-2,8-dimethylimidazo[1,2-b]pyridazine], the IC50 is not above 100 nM. In turn, `Cc1nc2ccc(-c3cc4sc(N(C)C5CC(C)(C)NC(C)(C)C5)nc4cn3)cn2n1` [Compound 136, N-methyl-6-(2-methyl[1,2,4]triazolo[1,5-a]pyridin-6-yl)-N-(2,2,6,6-tetramethylpiperidin-4-yl)[1,3]thiazolo[4,5-c]pyridin-2-amine] showed an IC50 of 100 to 500 nM. As for `CN(c1nc2cnc(-c3ccc(-c4cn[nH]c4)cc3O)cc2s1)C1CC(C)(C)NC(C)(C)C1` [Compound 137, 2-{2-[methyl(2,2,6,6-tetramethylpiperidin-4-yl)amino][1,3]thiazolo[4,5-c]pyridin-6-yl}-5-(1H-pyrazol-4-yl)phenol], the figure is 3000 to 9000 nM; as for `Cc1cn2cc(-c3ccc4nc(N(C)C5CC(C)(C)NC(C)(C)C5)sc4c3)cc(C#N)c2n1` [Compound 138, 2-methyl-6-{2-[methyl(2,2,6,6-tetramethylpiperidin-4-yl)amino]-1,3-benzothiazol-6-yl}imidazo[1,2-a]pyridine-8-carbonitrile], not above 100 nM. For `Cc1cn2nc(-c3ccc4nc(C5CCNCC5)sc4c3)cc(C)c2n1` [Compound 139, 2,8-dimethyl-6-[2-(piperidin-4-yl)-1,3-benzothiazol-6-yl]imidazo[1,2-b]pyridazine] the value was not above 100 nM. `CN(c1nc2ncc(-c3cc(C#N)c4nn(C)cc4c3)nc2s1)C1CC(C)(C)NC(C)(C)C1` [Compound 140, 2-methyl-5-{2-[methyl(2,2,6,6-tetramethylpiperidin-4-yl)amino][1,3]thiazolo[4,5-b]pyrazin-6-yl)-2H-indazole-7-carbonitrile] showed an IC50 not above 100 nM. For `Cc1cn2nc(-c3cnc4nc(N(C)C5CC(C)(C)NC(C)(C)C5)sc4n3)ccc2n1` [Compound 141, N-methyl-6-(2-methylimidazo[1,2-b]pyridazin-6-yl)-N-(2,2,6,6-tetramethylpiperidin-4-yl)[1,3]thiazolo[4,5-b]pyrazin-2-amine] the value was not above 100 nM; for `CN(c1nc2cnc(-c3ccc(-c4cn[nH]c4)cc3O)nc2s1)C1CC(C)(C)NC(C)(C)C1` [Compound 142, 2-{2-[methyl(2,2,6,6-tetramethylpiperidin-4-yl)amino][1,3]thiazolo[5,4-d]pyrimidin-5-yl}-5-(1H-pyrazol-4-yl)phenol], 100 to 500 nM; for `Cc1cn2nc(-c3cc(F)c4nc(N5CCC(O)CC5)sc4c3)cc(C)c2n1` [Compound 143, 1-[6-(2,8-dimethylimidazo[1,2-b]pyridazin-6-yl)-4-fluoro-1,3-benzothiazol-2-yl]piperidin-4-ol], 100 to 500 nM. As for `Cc1cn2nc(-c3cc(F)c4nc(C5CCN[C@H](C)C5)sc4c3)ccc2n1` (stereo partly drawn) [Compound 144, 6-{4-fluoro-2-[(2R)-2-methylpiperidin-4-yl]-1,3-benzothiazol-6-yl}-2-methylimidazo[1,2-b]pyridazine], the figure is not above 100 nM.
